Results from patent US10787452B2 (Vertex Pharmaceuticals Incorporated, priority 2012, dated 2020).

These compounds were tested on HCT116 colorectal cancer cells (assay: Cisplatin sensitization assay (96 h cell viability MTS)). Conditions: 96 h MTS, compound plus Cisplatin.
Type: cell-based
Protocol: Compounds can be screened for their ability to sensitize HCT116 colorectal cancer cells to Cisplatin using a 96 h cell viability (MTS) assay. […] Compounds and Cisplatin are then both added simultaneously to the cell media in 2-fold serial dilutions from a top final concentration of 10 μM as a full matrix of concentrations in a final cell volume of 200 μl, and the cells are then incubated at 37° C. in 5% CO2. After 96 h, 40 μl of MTS reagent (Promega G358a) is added to each well and the cells are incubated for 1 h at 37° C. in 5% CO2.
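Also: compound concentration needed to lower the Cisplatin-alone IC50 by a set fold.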

| SMILES | Cisplatin Sensitization Assay |
| --- | --- |
| CN1CCN(CC2CCN(c3c(F)cncc3NC(=O)c3c(N)nn4cc(F)cnc34)CC2)C(=O)C1 [I-N-193, 2-amino-6-fluoro-N-(5-fluoro-4-(4-((4-methyl-2-oxopiperazin-1-yl)methyl)piperidin-1-yl)pyridin-3-yl)pyrazolo[1,5-a]pyrimidine-3-carboxamide] | +++ (Compounds with a Cisplatin sensitization value of <0.02 μM are marked with “+++.”) |
| Nc1nn2cc(F)cnc2c1C(=O)Nc1cncc(F)c1N1CCN(C(=O)C2CC3CCCCN3C2)CC1 (stereo not shown) [I-N-203, 2-amino-6-fluoro-N-(5-fluoro-4-(4-(octahydroindolizine-2-carbonyl)piperazin-1-yl)pyridin-3-yl)pyrazolo[1,5-a]pyrimidine-3-carboxamide] | +++ (Compounds with a Cisplatin sensitization value of <0.02 μM are marked with “+++.”) |
| Nc1nn2cc(F)cnc2c1C(=O)Nc1cnccc1-c1ccc(C(=O)N2CCC(N3CCC3)CC2)nc1 [I-C-54, 2-amino-N-(6-(4-(azetidin-1-yl)piperidine-1-carbonyl)-[3,4′-bipyridin]-3′-yl)-6-fluoropyrazolo[1,5-a]pyrimidine-3-carboxamide] | +++ (Compounds with a Cisplatin sensitization value of <0.02 μM are marked with “+++.”) |
| CN(C)CCCOc1ccncc1NC(=O)c1c(N)nn2cc(Cl)cnc12 [I-O-52, 2-amino-6-chloro-N-(4-(3-(dimethylamino)propoxy)pyridin-3-yl)pyrazolo[1,5-a]pyrimidine-3-carboxamide] | + (Compounds with a Cisplatin sensitization value >0.2 μM but <5 μM are marked with “+.”) |
| CC(C)(O)C1CCN(c2ccncc2NC(=O)c2c(N)nn3cc(Cl)cnc23)CC1 [I-N-69, 2-amino-6-chloro-N-(4-(4-(2-hydroxypropan-2-yl)piperidin-1-yl)pyridin-3-yl)pyrazolo[1,5-a]pyrimidine-3-carboxamide] | +++ (Compounds with a Cisplatin sensitization value of <0.02 μM are marked with “+++.”) |
| Nc1nn2cc(F)cnc2c1C(=O)Nc1cnccc1N1CCN2C(=O)OCC2C1 (stereo not shown) [I-N-238, 2-amino-6-fluoro-N-(4-(3-oxotetrahydro-1H-oxazolo[3,4-a]pyrazin-7(3H)-yl)pyridin-3-yl)pyrazolo[1,5-a]pyrimidine-3-carboxamide] | ++ (Compounds with a Cisplatin sensitization value >0.02 μM but <0.2 μM are marked with “++.”) |
| Cn1nncc1-c1ccncc1NC(=O)c1c(N)nn2cc(F)cnc12 [I-C-72, 2-amino-6-fluoro-N-(4-(1-methyl-1H-1,2,3-triazol-5-yl)pyridin-3-yl)pyrazolo[1,5-a]pyrimidine-3-carboxamide] | +++ (Compounds with a Cisplatin sensitization value of <0.02 μM are marked with “+++.”) |
| CN(C)CCCN(C)C(=O)C1CCN(c2c(F)cncc2NC(=O)c2c(N)nn3cc(F)cnc23)CC1 [I-G-16, 2-amino-N-(4-(4-((3-(dimethylamino)propyl)(methyl)carbamoyl)piperidin-1-yl)-5-fluoropyridin-3-yl)-6-fluoropyrazolo[1,5-a]pyrimidine-3-carboxamide] | +++ (Compounds with a Cisplatin sensitization value of <0.02 μM are marked with “+++.”) |
| CN1CC2(CCN(c3ccncc3NC(=O)c3c(N)nn4cc(F)cnc34)CC2)OC1=O [I-N-216, 2-amino-6-fluoro-N-(4-(3-methyl-2-oxo-1-oxa-3,8-diazaspiro[4.5]decan-8-yl)pyridin-3-yl)pyrazolo[1,5-a]pyrimidine-3-carboxamide] | +++ (Compounds with a Cisplatin sensitization value of <0.02 μM are marked with “+++.”) |
| CN(C)C1CN(C2CCN(c3ccncc3NC(=O)c3c(N)nn4cc(Cl)cnc34)CC2)C1 [I-N-94, 2-amino-6-chloro-N-(4-(4-(3-(dimethylamino)azetidin-1-yl)piperidin-1-yl)pyridin-3-yl)pyrazolo[1,5-a]pyrimidine-3-carboxamide] | +++ (Compounds with a Cisplatin sensitization value of <0.02 μM are marked with “+++.”) |
| CN1CCN(C(=O)C2CCN(c3ccncc3NC(=O)c3c(N)nn4cc(F)cnc34)CC2)CC1 [I-G-1, 2-amino-6-fluoro-N-(4-(4-(4-methylpiperazine-1-carbonyl)piperidin-1-yl)pyridin-3-yl)pyrazolo[1,5-a]pyrimidine-3-carboxamide] | +++ (Compounds with a Cisplatin sensitization value of <0.02 μM are marked with “+++.”) |
| CN1CC[C@H](Oc2ccncc2NC(=O)c2c(N)nn3cc(F)cnc23)C1 [I-O-1, (S)-2-amino-6-fluoro-N-(4-((1-methylpyrrolidin-3-yl)oxy)pyridin-3-yl)pyrazolo[1,5-a]pyrimidine-3-carboxamide] | +++ (Compounds with a Cisplatin sensitization value of <0.02 μM are marked with “+++.”) |
| Nc1nn2cc(Cl)cnc2c1C(=O)Nc1cnccc1N1CCN2CCC[C@@H]2C1 [I-N-65, (R)-2-amino-6-chloro-N-(4-(hexahydropyrrolo[1,2-a]pyrazin-2(1H)-yl)pyridin-3-yl)pyrazolo[1,5-a]pyrimidine-3-carboxamide] | + (Compounds with a Cisplatin sensitization value >0.2 μM but <5 μM are marked with “+.”) |
| CN1CCOC(C(=O)N2CCN(c3c(F)cncc3NC(=O)c3c(N)nn4cc(F)cnc34)CC2)C1 (stereo not shown) [I-N-174, 2-amino-6-fluoro-N-(5-fluoro-4-(4-(4-methylmorpholine-2-carbonyl)piperazin-1-yl)pyridin-3-yl)pyrazolo[1,5-a]pyrimidine-3-carboxamide] | +++ (Compounds with a Cisplatin sensitization value of <0.02 μM are marked with “+++.”) |
| CN(C)S(=O)(=O)C1CCN(c2c(F)cncc2NC(=O)c2c(N)nn3cc(F)cnc23)CC1 [I-N-146, 2-amino-N-(4-(4-(N,N-dimethylsulfamoyl)piperidin-1-yl)-5-fluoropyridin-3-yl)-6-fluoropyrazolo[1,5-a]pyrimidine-3-carboxamide] | +++ (Compounds with a Cisplatin sensitization value of <0.02 μM are marked with “+++.”) |
| COC1CCN(C2CCN(c3ccncc3NC(=O)c3c(N)nn4cc(Cl)cnc34)CC2)C1 (stereo not shown) [I-N-95, 2-amino-6-chloro-N-(4-(4-(3-methoxypyrrolidin-1-yl)piperidin-1-yl)pyridin-3-yl)pyrazolo[1,5-a]pyrimidine-3-carboxamide] | ++ (Compounds with a Cisplatin sensitization value >0.02 μM but <0.2 μM are marked with “++.”) |
| COCCOc1ccncc1NC(=O)c1c(N)nn2cc(Cl)cnc12 [I-O-55, 2-amino-6-chloro-N-(4-(2-methoxyethoxy)pyridin-3-yl)pyrazolo[1,5-a]pyrimidine-3-carboxamide] | ++ (Compounds with a Cisplatin sensitization value >0.02 μM but <0.2 μM are marked with “++.”) |
| Cc1ccc(-c2ccncc2NC(=O)c2c(N)nn3cc(F)cnc23)cn1 [I-C-22, 2-amino-6-fluoro-N-(6-methyl-[3,4′-bipyridin]-3′-yl)pyrazolo[1,5-a]pyrimidine-3-carboxamide] | ++ (Compounds with a Cisplatin sensitization value >0.02 μM but <0.2 μM are marked with “++.”) |
| Nc1nn2cc(Cl)cnc2c1C(=O)Nc1cnccc1OCCN1CCOCC1 [I-O-60, 2-amino-6-chloro-N-(4-(2-morpholinoethoxy)pyridin-3-yl)pyrazolo[1,5-a]pyrimidine-3-carboxamide] | ++ (Compounds with a Cisplatin sensitization value >0.02 μM but <0.2 μM are marked with “++.”) |
| Nc1nn2cc(F)cnc2c1C(=O)Nc1cncc(F)c1N1CCC(N2CCOCC2)CC1 [I-N-189, 2-amino-6-fluoro-N-(5-fluoro-4-(4-morpholinopiperidin-1-yl)pyridin-3-yl)pyrazolo[1,5-a]pyrimidine-3-carboxamide] | +++ (Compounds with a Cisplatin sensitization value of <0.02 μM are marked with “+++.”) |
| N#CCc1cnc2c(C(=O)Nc3cnccc3OCCCO)c(N)nn2c1 [I-O-40, 2-amino-6-(cyanomethyl)-N-(4-(3-hydroxypropoxy)pyridin-3-yl)pyrazolo[1,5-a]pyrimidine-3-carboxamide] | ++ (Compounds with a Cisplatin sensitization value >0.02 μM but <0.2 μM are marked with “++.”) |
| CN1CCOC2(CCN(c3ccncc3NC(=O)c3c(N)nn4cc(F)cnc34)CC2)C1 [I-N-183, 2-amino-6-fluoro-N-(4-(4-methyl-1-oxa-4,9-diazaspiro[5.5]undecan-9-yl)pyridin-3-yl)pyrazolo[1,5-a]pyrimidine-3-carboxamide] | +++ (Compounds with a Cisplatin sensitization value of <0.02 μM are marked with “+++.”) |
| COC1CN(C(=O)C2CCN(c3ccncc3NC(=O)c3c(N)nn4cc(F)cnc34)CC2)C1 [I-G-78, 2-amino-6-fluoro-N-(4-(4-(3-methoxyazetidine-1-carbonyl)piperidin-1-yl)pyridin-3-yl)pyrazolo[1,5-a]pyrimidine-3-carboxamide] | +++ (Compounds with a Cisplatin sensitization value of <0.02 μM are marked with “+++.”) |
| COc1cncc(NC(=O)c2c(N)nn3cc(F)cnc23)c1C1CC1 [I-C-84, 2-amino-N-(4-cyclopropyl-5-methoxypyridin-3-yl)-6-fluoropyrazolo[1,5-a]pyrimidine-3-carboxamide] | ++ (Compounds with a Cisplatin sensitization value >0.02 μM but <0.2 μM are marked with “++.”) |
| Nc1nn2cc(F)cnc2c1C(=O)Nc1cncc(F)c1N1CCC(C(=O)N2CCC(N3CCCC3)CC2)CC1 [I-G-59, 2-amino-6-fluoro-N-(5-fluoro-4-(4-(4-(pyrrolidin-1-yl)piperidine-1-carbonyl)piperidin-1-yl)pyridin-3-yl)pyrazolo[1,5-a]pyrimidine-3-carboxamide] | +++ (Compounds with a Cisplatin sensitization value of <0.02 μM are marked with “+++.”) |
